# Results taken from paper PMC11946580, “In Vitro Enzymatic and Computational Assessments of Pyrazole–Isatin and Pyrazole–Indole Conjugates as Anti-Diabetic, Anti-Arthritic, and Anti-Inflammatory Agents” (Pharmaceutics, 2025).
# Legend:
# COX-1 = molecular target: T1, COX-1 (Ovis aries, UniProt P05979); assay: COX-1 inhibition assay (Cayman kit); conditions: for COX-1 Inhibition (%): mean ± SE, three replicates; as to COX-1 Inhibition (%): test concentration or dose not given here
# T1 sequence (P05979 25-600): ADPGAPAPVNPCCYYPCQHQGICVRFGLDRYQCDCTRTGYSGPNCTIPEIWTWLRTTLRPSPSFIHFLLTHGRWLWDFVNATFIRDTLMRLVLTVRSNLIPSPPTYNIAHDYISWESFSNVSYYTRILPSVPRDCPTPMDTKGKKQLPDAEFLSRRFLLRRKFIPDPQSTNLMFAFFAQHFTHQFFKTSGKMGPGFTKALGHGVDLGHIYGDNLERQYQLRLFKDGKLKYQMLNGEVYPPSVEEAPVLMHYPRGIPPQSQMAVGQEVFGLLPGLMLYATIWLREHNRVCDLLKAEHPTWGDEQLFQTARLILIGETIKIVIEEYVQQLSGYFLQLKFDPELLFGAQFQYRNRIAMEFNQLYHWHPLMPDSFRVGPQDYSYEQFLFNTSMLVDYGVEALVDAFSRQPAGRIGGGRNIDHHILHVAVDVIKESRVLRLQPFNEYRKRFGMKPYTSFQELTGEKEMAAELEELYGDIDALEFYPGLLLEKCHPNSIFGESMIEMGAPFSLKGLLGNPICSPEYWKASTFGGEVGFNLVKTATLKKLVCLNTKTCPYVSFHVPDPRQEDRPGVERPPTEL
# 5-LOX = molecular target: T2, 5-LOX (Homo sapiens, UniProt P09917); assay: 5-Lipoxygenase inhibition assay (kit); conditions: for 5-LOX Inhibition (%): mean ± SE, three replicates; as to 5-LOX Inhibition (%): test concentration or dose not given here
# T2 sequence (P09917 1-674): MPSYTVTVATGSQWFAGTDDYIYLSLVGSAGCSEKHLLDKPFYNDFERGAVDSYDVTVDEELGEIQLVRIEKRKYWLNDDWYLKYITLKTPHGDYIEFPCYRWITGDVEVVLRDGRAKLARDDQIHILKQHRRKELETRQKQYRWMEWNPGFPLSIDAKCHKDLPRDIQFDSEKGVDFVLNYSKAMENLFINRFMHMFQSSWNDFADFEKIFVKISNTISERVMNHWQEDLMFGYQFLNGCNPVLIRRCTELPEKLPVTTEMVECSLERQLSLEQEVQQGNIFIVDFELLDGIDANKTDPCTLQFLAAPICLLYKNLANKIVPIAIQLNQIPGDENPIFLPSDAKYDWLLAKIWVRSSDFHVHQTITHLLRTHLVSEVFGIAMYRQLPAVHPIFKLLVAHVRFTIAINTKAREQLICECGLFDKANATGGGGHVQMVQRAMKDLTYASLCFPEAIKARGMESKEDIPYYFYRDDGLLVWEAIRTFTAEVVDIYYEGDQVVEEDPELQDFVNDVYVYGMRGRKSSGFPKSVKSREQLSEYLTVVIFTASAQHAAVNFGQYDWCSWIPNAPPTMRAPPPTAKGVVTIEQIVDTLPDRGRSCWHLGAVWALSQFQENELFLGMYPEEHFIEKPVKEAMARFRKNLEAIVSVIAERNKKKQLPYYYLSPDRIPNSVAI
# COX-2 = molecular target: T3, COX-2 (Homo sapiens, UniProt P35354); assay: COX-2 inhibition assay (Cayman kit); type: biochemical; conditions: mean ± SE, three replicates
# T3 construct: purchased Cayman 560131
# T3 sequence (P35354 18-604): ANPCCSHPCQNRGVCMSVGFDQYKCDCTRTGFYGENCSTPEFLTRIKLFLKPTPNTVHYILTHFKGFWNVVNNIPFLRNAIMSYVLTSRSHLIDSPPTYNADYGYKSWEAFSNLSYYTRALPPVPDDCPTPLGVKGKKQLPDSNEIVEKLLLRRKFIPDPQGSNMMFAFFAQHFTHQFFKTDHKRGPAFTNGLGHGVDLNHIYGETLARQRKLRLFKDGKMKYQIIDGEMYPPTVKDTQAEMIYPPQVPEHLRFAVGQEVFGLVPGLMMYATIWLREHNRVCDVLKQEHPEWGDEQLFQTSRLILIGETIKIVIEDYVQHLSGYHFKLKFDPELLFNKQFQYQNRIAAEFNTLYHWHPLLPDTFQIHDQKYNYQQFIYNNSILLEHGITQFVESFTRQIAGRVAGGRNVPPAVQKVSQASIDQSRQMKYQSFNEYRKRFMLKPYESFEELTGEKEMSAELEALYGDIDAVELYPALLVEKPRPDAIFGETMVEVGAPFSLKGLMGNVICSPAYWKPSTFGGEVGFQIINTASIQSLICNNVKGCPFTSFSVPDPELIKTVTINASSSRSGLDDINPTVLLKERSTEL
# [1] = molecular target: bovine serum albumin (BSA) (Bos taurus, UniProt P02769); conditions: mean ± SE, three replicates; also: test concentration or dose not given here
# [2] = design: method as in PMID 39143406; conditions: cited from earlier work
# COX-2 enzyme = molecular target: COX-2 enzyme; design: method as in PMID 39143406; conditions: cited from earlier work
# [3] = molecular target: cyclooxygenase-1 (COX-1) enzyme; design: method as in PMID 37985602; conditions: cited from earlier work
# [4] = molecular target: cyclooxygenase-2 (COX-2) enzyme; design: method as in PMID 37985602; conditions: cited from earlier work
# α-glucosidase = α-glucosidase (Saccharomyces cerevisiae, UniProt P53341); assay: α-glucosidase inhibition assay (pNPG); type: biochemical; conditions: mean ± SE, three replicates
# Procedure: In vitro enzymatic assessments
# The mixture was then left at
# The absorbance was measured
# the enzymatic activity. […] The IC50
# α-glucosidase enzyme = molecular target: α-glucosidase enzyme; design: method as in PMID 38225280; conditions: cited from earlier work
# diabetic mice = system: diabetic mice; design: method as in PMID 38029465; conditions: cited from earlier work
# [5] = design: method as in doi:10.1007/s11164-024-05318-1; conditions: read-out: antioxidant activities IC50; cited from earlier work
# α-amylase enzyme = molecular target: α-amylase enzyme; design: method as in PMID 34600331; conditions: cited from earlier work
# [6] = system: pancreatic cancer (PaCa-2) cells; design: method as in PMID 39193301; conditions: cited from earlier work
# Sequence of bovine serum albumin (BSA) (P02769 25-607): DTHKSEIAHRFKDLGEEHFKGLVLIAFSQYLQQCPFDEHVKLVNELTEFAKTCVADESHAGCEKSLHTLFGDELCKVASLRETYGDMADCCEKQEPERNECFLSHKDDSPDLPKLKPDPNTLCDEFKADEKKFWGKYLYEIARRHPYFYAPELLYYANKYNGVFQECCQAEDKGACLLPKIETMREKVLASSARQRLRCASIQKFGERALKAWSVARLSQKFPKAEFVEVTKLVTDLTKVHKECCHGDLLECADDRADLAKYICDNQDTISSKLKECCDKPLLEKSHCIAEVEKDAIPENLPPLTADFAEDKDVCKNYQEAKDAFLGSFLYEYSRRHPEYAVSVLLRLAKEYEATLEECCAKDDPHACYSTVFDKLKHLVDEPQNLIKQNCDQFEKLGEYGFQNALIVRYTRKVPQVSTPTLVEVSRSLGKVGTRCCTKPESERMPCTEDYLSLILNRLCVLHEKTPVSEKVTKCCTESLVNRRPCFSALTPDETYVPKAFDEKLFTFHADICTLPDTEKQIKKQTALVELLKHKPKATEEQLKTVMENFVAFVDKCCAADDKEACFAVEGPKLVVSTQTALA
# Sequence of α-glucosidase (P53341 whole entry): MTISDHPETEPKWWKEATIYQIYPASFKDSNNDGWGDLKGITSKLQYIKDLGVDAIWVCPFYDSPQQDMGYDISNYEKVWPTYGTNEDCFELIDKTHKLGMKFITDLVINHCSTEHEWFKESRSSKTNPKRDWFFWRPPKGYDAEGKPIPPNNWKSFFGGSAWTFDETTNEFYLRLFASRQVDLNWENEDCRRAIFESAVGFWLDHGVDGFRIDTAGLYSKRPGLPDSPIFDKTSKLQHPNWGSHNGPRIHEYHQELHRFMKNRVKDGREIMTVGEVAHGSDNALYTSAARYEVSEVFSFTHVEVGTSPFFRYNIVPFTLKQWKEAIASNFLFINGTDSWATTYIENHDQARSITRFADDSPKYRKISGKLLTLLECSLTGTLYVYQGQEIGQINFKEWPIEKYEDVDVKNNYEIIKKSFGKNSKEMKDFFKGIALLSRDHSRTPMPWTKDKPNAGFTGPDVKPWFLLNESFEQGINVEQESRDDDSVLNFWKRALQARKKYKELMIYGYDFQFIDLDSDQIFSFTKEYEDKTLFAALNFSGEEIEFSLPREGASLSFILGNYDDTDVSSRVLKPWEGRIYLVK
SMILES,IC50 (COX-1),COX-1 Inhibition (%) (COX-1),IC50 (5-LOX),5-LOX Inhibition (%) (5-LOX),COX-2 Inhibition (%) (COX-2),IC50 (COX-2),Protein Denaturation Inhibition (%) [1],other results
CCN1C(=O)C(=Nc2[nH]nc(Nc3ccccc3)c2C(=O)Nc2ccccc2)c2ccccc21 [12e],47.8 µM,17.62 ± 0.04%,48 µM,9.72 ± 0.04%,19.87 ± 0.04%,43.3 µM,14.50 ± 0.03%,
Cc1ccc(NC(=O)c2c(Nc3ccccc3)n[nH]c2N=C2C(=O)N(C)c3ccccc32)cc1 [12b],44.9 µM,18.75 ± 0.04%,45.7 µM,10.85 ± 0.04%,21.00 ± 0.04%,40.9 µM,15.25 ± 0.03%,
CN1C(=O)C(=Nc2[nH]nc(Nc3ccccc3)c2C(=O)Nc2ccccc2)c2ccccc21 [12a],49.8 µM,17.47 ± 0.04%,49.9 µM,9.57 ± 0.04%,19.72 ± 0.04%,45 µM,14.40 ± 0.03%,
Cc1ccc(NS(=O)(=O)c2ccc(-c3csc(N/N=C4\C(=O)Nc5ccc(Cl)cc54)n3)cc2)cc1 [compound 6],,,,,,,,edema inhibition (EI) [2]: 38.50%; IC50 (COX-2 enzyme): 8.26 µM; selectivity against COX-2 (SI) (COX-2 enzyme): 2.65
O=C(Nc1cc(-c2ccccc2)nn1-c1ccccc1)c1ccc(/C=C/C(=O)c2ccc(Cl)s2)cc1 [compound 2],,,,,,,,IC50 [3]: 10.2 µM; IC50 [4]: 1.76 µM
C[C@H]1O[C@H](O[C@H]2[C@H](O)[C@@H](O)[C@@H](O[C@H]3[C@H](O)[C@@H](O)C(O)O[C@@H]3CO)O[C@@H]2CO)[C@H](O)[C@@H](O)[C@@H]1N[C@H]1C=C(CO)[C@@H](O)[C@H](O)[C@H]1O (stereo partly shown) [Acarbose],,,,,,,,α-Glucosidase Inhibition (%) (α-glucosidase): 62.33 ± 0.16%
COc1ccc(Nc2n[nH]c(N=C3C(=O)N(C)c4ccccc43)c2C(=O)Nc2ccccc2)cc1 [12c],38.8 µM,20.98 ± 0.04%,40.4 µM,13.08 ± 0.04%,23.23 ± 0.04%,35.8 µM,16.73 ± 0.03%,
O=C(Nc1ccccc1)c1c(Nc2ccccc2)n[nH]c1N=Cc1c[nH]c2ccccc12 [14a],17.1 µM,52.79 ± 0.26%,21.9 µM,44.89 ± 0.26%,55.04 ± 0.26%,16.7 µM,37.94 ± 0.17%,
"CC(c1cc2ccccc2s1)N(O)C(N)=O (stereo not shown) [Zileuton, reference compound]",,,,72.61 ± 0.07%,,,,
Cc1cc(-c2nnc(S)n2N)n[nH]1 [compound 1],,,,,,,,IC50 (α-glucosidase enzyme): 95.85 ± 0.92 µM
CCN1C(=O)C(=Nc2[nH]nc(Nc3ccc(OC)cc3)c2C(=O)Nc2ccccc2)c2ccccc21 [12g],37.4 µM,21.15 ± 0.04%,38.9 µM,13.25 ± 0.04%,23.40 ± 0.04%,34.4 µM,16.85 ± 0.03%,
CCN1C(=O)/C(=N\c2[nH]nc(Nc3ccccc3)c2C(=O)Nc2ccc(C)cc2)c2ccccc21 [12f],43.2 µM,18.91 ± 0.04%,44 µM,11.01 ± 0.04%,21.16 ± 0.04%,39.4 µM,15.36 ± 0.03%,
COc1ccc(Nc2n[nH]c(N=Cc3c[nH]c4ccccc34)c2C(=O)Nc2ccc(C)cc2)cc1 [14d],22.9 µM,35.63 ± 0.26%,26.7 µM,27.73 ± 0.26%,37.88 ± 0.26%,22 µM,26.50 ± 0.17%,
Cc1ccc(NC(=O)c2c(Nc3ccccc3)n[nH]c2N=Cc2c[nH]c3ccccc23)cc1 [14b],12.5 µM,69.83 ± 0.26%,17.3 µM,61.93 ± 0.26%,72.08 ± 0.26%,12.4 µM,49.30 ± 0.17%,
COc1ccc(Nc2n[nH]c(N=Cc3c[nH]c4ccccc34)c2C(=O)Nc2ccccc2)cc1 [14c],24 µM,35.07 ± 0.26%,27.8 µM,27.17 ± 0.26%,37.32 ± 0.26%,23 µM,26.13 ± 0.17%,
COc1ccc(Nc2n[nH]c(N=C3C(=O)N(C)c4ccccc43)c2C(=O)Nc2ccc(C)cc2)cc1 [12d],38 µM,20.80 ± 0.04%,39.4 µM,12.90 ± 0.04%,23.05 ± 0.04%,35 µM,16.62 ± 0.03%,
Cc1ccc(/C=C2\SC(=O)N(CC(=O)NCCc3c[nH]c4ccccc34)C2=O)cc1 [compound 7],,,,,,,,glucose levels in diabetic mice (diabetic mice): suppressed glucose levels in diabetic mice
COc1cc(C=NNC(=S)NN=C2C(=O)Nc3ccc(I)cc32)ccc1O [compound 5],,,,,,,,IC50 [5]: 9.76 ± 0.03 µM
CCN1C(=O)C(=Nc2[nH]nc(Nc3ccc(OC)cc3)c2C(=O)Nc2ccc(C)cc2)c2ccccc21 [12h],37.3 µM,20.56 ± 0.04%,38.7 µM,12.66 ± 0.04%,22.81 ± 0.04%,34.3 µM,16.45 ± 0.03%,
CCC(=O)CN1C(=O)/C(=N/NC(=O)c2ccc(Br)cc2)c2ccccc21 [compound 4],,,,,,,,α-amylase IC50 (α-amylase enzyme): 19.6 µg/mL
CCc1nn(-c2ccc([N+](=O)[O-])cc2)c(C)c1C(=O)/C=C/c1ccccc1 [compound 3],,,,,,,,PaCa-2 cells IC50 [6]: 13.0 µg/mL; cell cycle effect in treated PaCa-2 cells [6]: induces cell cycle arrest at the S and G2/M phases
